EP0154476A2, “Steroid compound” (STERWIN AG., priority 1984, dated 1985)

Experiments:
[1] = system: plasma cortisol; assay: plasma cortisol by radioimmunoassay after oral trilostane in volunteers; format: in vivo, healthy male volunteers; details: trilostane 2 x 60 mg capsules orally, fasted, plasma up to 8 hours; during sustained plasma peaks of trilostane and 17-keto metabolite
[2] = cytochemical bioassay in unfixed tissue sections of dioestrous rat ovary (formazan dye absorbance); format: biochemical; details: versus trilostane, weight for weight basis, standard curves 0.15 to 2.5 µM (nM), 95% confidence 1.4-2.1
Method: In a first study, a cytochemical bioassay was employed to determine the relative potency of the 17- keto trilostane metabolite versus trilostane, in three experiments. From the results obtained, standard curves covering the range from 0.15 to 2.5nM were prepared for the metabolite and the parent compound. Potency estimates were calculated by computer analysis of the relative slopes and errors around each dose point.
The cytochemical bioassay is based upon the reaction, within serial unfixed tissue sections of the dioestrous rat ovary, between the enzyme, […] -A^5-3-oxosteroid isomerase (38 HSD) contained therein, and added substrate, cofactors and a colourless tetrazolium salt. The reaction leads to the deposition of an intensely coloured blue insoluble formazan dye in the sections, and the amount of dye produced within a section over a given period (absorbance) is measured by means of a scanning integrating densitometer. If an inhibitor of 3a HSD, such as trilostane or 17-keto trilostane metabolite is added to the system, the amount of blue dye formed will be reduced.
The bioassay curves obtained are as shown in Figure 1 of the accompanying drawings, results being expressed as the mean +SD(n=4).

Structure (SMILES) | cortisol secretion [1] | relative in vitro potency compared with the parent compound [2] | relative in vitro potency compared with the parent compound ([2]; listed as metabolite) [times]
C[C@]12CC[C@H]3[C@@H](CC[C@@]45O[C@@H]4C(O)=C(C#N)C[C@]35C)[C@@H]1CC[C@@H]2O [trilostane, 2a-cyano-4a,5a-epoxyandrostan-17a-ol-3-one] | suppressed |  | 
C[C@]12CC[C@H]3[C@@H](CC[C@@]45O[C@@H]4C(=O)[C@H](C#N)C[C@]35C)[C@@H]1CCC2=O [17-keto metabolite, 2α-cyano-4α,5α-epoxyandrostan-3,17-dione] |  | about 1.7 times | 1.71
